What all share (type): in vivo
The test system of assay [1] is Honey bee foragers (Apis mellifera scutellata). The assay is described as follows: Sucrose responsiveness (sensory sensitivity) of honey bees: flavonoids vs deltamethrin. The note with it: for sensitivity (sucrose responsiveness, total PER score) relative to Control bees: honey bees, rutin 1 μM, kaempferol 131.7 μM or both for one day, 17.81 μM deltamethrin next day, pooled score. The procedure: Honey bee foragers (Apis mellifera scutellata) were captured from established hives at the Apiary of the Universidad del Rosario (Bogota, Colombia) between 08:00 h and 10:00 h. Bees were ice-anesthetized and harnessed in plastic tubes and maintained under laboratory conditions for the duration of the experiment (three days).
On the first day, bees were randomly allocated to one of four treatments administered as two doses (morning: 20 μL; afternoon:10 μL): i) Control (1M sucrose solution), ii) Rutin 1 μM (Sigma-Aldrich R5143), iii) Kaempferol 131.7 μM (Sigma-Aldrich K0133), iv) Rutin-Kaempferol composition (final concentration of […] rutin and 131.7 μM kaempferol). All solutions were diluted in 1M sucrose solution to the concentrations described above. The next day, bees from each group were randomly assigned to one of two treatments: […] of 1M sucrose solution or 17.81 μM deltamethrin (Dinastia Bayer). Thus, bees belonged to one of eight treatments: i) Sucrose water (Control), ii) Rutin (Rut), iii) Kaempferol (Kaemp), iv) Kaempferol+Rutin (Kaemp+Rut), v) Deltamethrin (Delta), vi) Rutin+Deltamethrin (Rut+Delta), vii) Kaempferol+Deltamethrin (Kaemp+Delta), viii) Kaempferol+Rutin+Deltamethrin ((Kaemp+Rut)+Delta). All solutions were diluted in 1M sugar water to the concentrations described above.
Sensory sensitivity was evaluated using responsiveness to sucrose, a proxy of resource exploitation by foragers. On the second day, bees of the eight treatments described above were tested five times for their response threshold (0 h, 1 h, 2 h, 3 h and 4 h). The first measure (0 h) was done prior to pesticide administration. Bees were tested with an ascending sucrose concentration of 0.1, 0.3, 1, 3, 10 and 30% (w/w). Between each concentration, the bees were presented with pure water as a control for potential sensitization or habituation (Pankiw et al., Behav Ecol Sociobiol (2000) 47:265-267). The inter-trial time between the presentation of each sucrose concentration was at least 4 minutes. For each presentation, the reflexive extension of the proboscis (tongue) of the bee, after antennal stimulation with the solution was recorded. After the last measure (4 h), bees were fed with 10 μL of 1M sucrose solution and maintained until the next day for a final test (24 hours after pesticide administration).
For each bee, a responsiveness score was determined (0-7) 0 h, 1 h, 2 h, 3 h, 4 h and 24 h, and a pooled scored (0-42). Normal distribution of the scores was tested using Shapiro-Wilk W Test for the null hypothesis that data is from a Normal distribution. […] Thus, non-parametric tests were used for comparisons across treatments and for multiple comparisons. Overall changes of responses across different concentrations were evaluated using repeated-measured MANOVA. Error associated with multiple comparisons was controlled using the Two-stage sharpened False Discovery Rate, and corrected p-values (q-values) are presented. Data were explored for outliers using a single run of Robust Fit outliers test. All analyses were conducted using JMP v.14 (SAS Institute Inc.)

Assay [2] has the same test system. The assay is described as follows: Classical conditioning of PER in honey bees: rutin, kaempferol, p-coumaric acid vs fipronil. As to conditions: for learning score relative to Control bees: score 0-10, 1 μM rutin, 131 μM kaempferol, 200 μM p-coumaric acid or Mix twice a day for three days, 228 nM fipronil 10 μL three hours before training; for latency of response relative to Control bees: Dunnett's method. The procedure:
Honey bee foragers (Apis mellifera scutellata) were captured from established hives at the Apiary of the Universidad del Rosario (Bogota, Colombia) between 08:00 h and 10:00 h. Bees were ice-anesthetized and harnessed in plastic tubes and maintained under laboratory conditions for the duration of the experiment (five days). Food was provided twice a day in a volumen of 10 μL and varied in composition according to experimental treatments.
Bees were randomly allocated to one of the following treatments administered twice a day for three consecutive days (all concentrations are final):
Control: 1M sucrose water (10 μL)
Rut: 1 μM rutin (Sigma-Aldrich: R5143)-1M sugar water (10 μL)
Kaemp:131 μM kaempferol (Sigma-Aldrich:K0133)+1M sugar water (10 μL)
p-Cou A: 200 μM p-coumaric acid (Sigma-Aldrich:C9008) diluted in 1M sugar water (10 μL)
Mix: 1 μM rutin, 131 μM kaempferol and 200 μM p-Coumaric acid): Bees fed with composition diluted in 1M sugar water (10 μL) fed twice a day for three days
On the fourth day, bees were randomly assigned to one of two treatments three hours before training:
Fipronil: 10 μL of 228 nM Fipronil (Astuto Invesa) in 1M sucrose water
Sucrose solution: 10 μL 1M sucrose water
Thus, bees belong to one of ten treatments: Control, Kaemp, Rut, p-Cou A, Mix, Fipro, Kaemp+Fipro, Rut+Fipro, p-Cou A+Fipro, Mix+Fipro.
Bees were trained using classical conditioning of the proboscis extension response (PER). Briefly, bees received a soft current of clean air for 15 seconds to allow bees to accommodate. Then a soft current of 1-hexanol (Sigma-Aldrich: 471402) was injected for 10 seconds. Six seconds after injection of 1-hexanol, one of the antennae was stimulated with sugar water (1.5M), which leads to the reflexive extension of the proboscis, and the bee was allowed to drink for 4 seconds. Thus, the reward and the stimulus overlapped for four seconds. This sequence, recognized as a training trial, was repeated eleven times. Time was determined using a metronome (2 Hz). Memory retention was tested 24 hours after the eleven training trials. […] 12 bees were trained each session. Training was conducted by an experimenter blind to treatment.
(§1) Learning for each individual was quantified as the number of conditioned PER responses across the trials. Thus, for each bee a learning score between zero and ten (0-10) was recorded.
(§2) Multiple comparisons were then run comparing learning score relative to Control bees using a non-parametric one or two-tailed Steel Method depending upon predictions. These comparisons informed us about the predicted impairment produced by the insecticides, the predicted innocuous effect of the flavonoid and the potential level of protection. Error due to multiple comparisons was controlled using the False Discovery Rate method (FDR-two stage sharpened method). In all cases corrected p-values (q-values) are presented.
(§3) Memory retention was quantified as a nominal variable (yes/no). Data were compared across treatments using a Chi-square test, followed by multiple comparisons of all treatments vs. Control. Error due to multiple comparisons was controlled using the FDR as indicated above. In all cases corrected p-values (q values) are presented.
Latency was quantified as a continuous variable between 0.5 s and 10 s. Data were compared across treatments using an ANOVA following a Log transformation to normalize the distribution (Shapiro-Wilk W Test after log transformation: p>0.05 for all treatments for the null hypothesis that data is from a normal distribution), followed by multiple comparisons between all treatments and the Control group (Dunnett's method). Error due to multiple comparisons was controlled using the FDR method as indicated above. In all cases corrected p-values (q-values) are presented.

In assay [3] the test system is bumblebee Bombus impatiens. The assay is described as follows: Olfactory conditioning of PER in bumblebees: ad libitum rutin vs acute imidacloprid or fipronil. As for the experimental part:
One colony of the bumblebee Bombus impatiens (Koppert Inc) was kept in laboratory conditions. Bees received pollen inside the nests and foraged to a 1M sugar-water feeder outside of the nest. Bees were collected while on the feeder and iced anesthetized to then be randomly assigned to one of two plastic containers where ad libitum self-administration of one of two solutions was allowed to 10 bees: i) 1 M sucrose water or ii) 1 μM Rutin (Sigma-Aldrich R5143) diluted in 1M sucrose water. On the night of the third day, the feeder was removed to starve the bees. On the fourth day, the bees were iced anesthetized and yolked restrained in plastic pipettes. Bees were maintained in the pipettes for the rest of the experiment (two days). One hour after harnessing, the bees were randomly assigned to one of three treatments: i) 20 μL of 1M sucrose water, ii) 20 μL of 1M sucrose water+5 nM imidacloprid, iii) 20 μL of 1M sucrose water+6 nM fipronil. Thus, overall bees belonged to one of six treatments:
Control: ad libitum sucrose water for three days and 20 μL of sucrose water before training
Rutin: ad libitum 1 μM Rutin for three days and 20 μL of sucrose water before training
Imid: ad libitum sucrose water for three days and 20 μL of 5 nM Imidacloprid in 1M sugar water 2 hours before training
Rutin+Imid: ad libitum 1 μM Rutin for three days and 20 μL of 5 nM Imidacloprid in 1M sugar water 2 hours before training
Fipronil: ad libitum sucrose water for three days and 20 μL of 5 nM fipronil in 1M sucrose water 2 hours before training
Rutin+Fipronil: ad libitum […] Rutin for three days and 20 μL of 6 nM fipronil in 1M sugar water 2 hours before training
(§4) All bees were blind-trained using olfactory conditioning of the proboscis extension response (PER). Briefly, bees were exposed to a presentation of 1-nonanol (Sigma-Aldrich) for 10 s. After 7 s of the onset of the odor presentation, the antenna was stimulated with 1.5 M sugar-water to elicit the PER. Following the PER, the bee was allowed to drink sugar-water for 3 s. Each paired presentation was considered a training trial and each individual received eleven training trials with an average intertrial interval of 10 minutes. After training, all bees were fed 20 μL of 1M sugar water and maintained in plastic boxes for 24 h until the retention test. […] Twenty-four hours after the last training trial the bees were presented with the conditioned odor for 10 s.
as §1, §2, §3
Latency was quantified as a continuous variable between 0.5 s and 10 s. Data were compared across treatments using an ANOVA following a Log transformation to normalize the distribution (Shapiro-Wilk W Test after log transformation: p>0.05 for all treatments for the null hypothesis that data is from a normal distribution), followed by multiple comparisons between all treatments and the Control group. Error due to multiple comparisons was controlled using the FDR method as indicated above. […]

Assay [4] has as its system bumblebee Bombus impatiens. The assay is described as follows: Olfactory conditioning of PER in bumblebees: self-administered rutin vs chronic fipronil. The procedure:
One colony of the bumblebee Bombus impatiens (Koppert Inc) was kept in laboratory conditions. Bees received pollen inside the nests and foraged to a 1M sugar-water feeder outside of the nest. Bees were collected while on the feeder and iced anesthetized to then be randomly assigned to one of four plastic containers where self-administration of one of two solutions was allowed to 10 bees out of two feeders (glass vials with 500 μL of solution each): i) 1 M sucrose water or ii) 1 μM Rutin (Sigma-Aldrich R5143) diluted in 1M sucrose water. Feeders were refilled each day for three days. On the night of the third day, one of the vials was replaced by a new one with one of two solutions: i) 1 M sucrose water or ii) 1M sucrose water+6 nM fipronil. Feeders were refilled each day for three more days, thus providing a chronic exposure to fipronil. On the night of the […] day, bees were iced anesthetized and yolked restrained in plastic pipettes. Thus, bees belonged to one of four treatments:
Control: self-administered sucrose water for six days
Rut: self-administered rutin for six days
Fipro: self-administered sucrose water for three days followed by three days of self-administered sucrose water (one feeder) and fipronil (one feeder).
Rut+Fipro: self-administered rutin for three days followed by three days of self-administered rutin (one feeder) and fipronil (one feeder).
as §4, §1
Multiple comparisons were then run comparing learning score relative to Control bees using a non-parametric one or two-tailed Steel Method depending upon predictions. These comparisons informed us about the predicted impairment produced by the fipronil, the predicted innocuous effect of the rutin and the potential level of protection. Error due to multiple comparisons was controlled using the False Discovery Rate method (FDR-two stage sharpened method). In all cases corrected p-values (q-values) are presented.
as §3
Latency was quantified as a continuous variable between 0.5 s and 10 s. […]

Where [5] appears, read: bumblebees, 24 h retention test.

We go through four compounds from patent US20220339178A1, “COMPOSITIONS AND METHODS FOR COGNITIVE PROTECTION OF POLLINATORS AGAINST PESTICIDES” (priority 2019, published 2022).

For the compound `CC1(C)[C@H](C(=O)O[C@H](C#N)c2cccc(Oc3ccccc3)c2)[C@@H]1C=C(Br)Br` [Deltamethrin], the “sensitivity 24 h after administration of the insecticide relative to Control bees” value in assay [1] (24 h) is given as “lowest sensitivity”. Besides, the “bees responding to 30% sucrose water” value in assay [1] (after 4 hours) was “less than 30%”. Further, in assay [1] (after 24 hours), the “improvement in response to 30% sucrose water” value amounted to 10%. Also, the “bees responsive to 30% sucrose-water” value in assay [1] (after one hour) is recorded as “less than 40%”. Besides, the “sensitivity (sucrose responsiveness, total PER score) relative to Control bees” value in assay [1] was “significantly lower”.
`N#Cc1nn(-c2c(Cl)cc(C(F)(F)F)cc2Cl)c(N)c1[S+]([O-])C(F)(F)F` (stereo not shown) [Fipronil]: in assay [2] (24 h retention), the “proportion difference Control minus treatment for a PER response (Adjusted Wald test)” value came out at 0.545. In addition, the “bees exhibiting a conditioned response after 24 h” value in assay [2] (honey bees, 24 h retention test) was “None”; in assay [3] (setting [5]), 34.6%; in assay [4] (setting [5]) it was 33.3%. The “learning score relative to Control bees” value is listed as “significantly lower” in assay [2] (honey bees); “significantly lower” in assay [3] (bumblebees, score 0-10, ad libitum 1 μM rutin three days, 5 nM imidacloprid or 6 nM fipronil 20 μL 2 hours before training); “significantly lower” in assay [4] (bumblebees, score 0-10, self-administered 1 μM rutin six days, 6 nM fipronil feeder for the last three days (chronic)). The “odds of remembering for Control bees relative to insecticide bees” value in assay [3] (24 h retention) was found to be 3.4 times. Further, the “proportion difference Control minus insecticide group for a PER response (Adjusted Wald test)” value in assay [3] (24 h retention) came to 0.30. For the same compound, in assay [3] (bumblebees), the “decision-making ratio (latency of response / learning score) relative to Control bees” value was “significant increase”. Moreover, the “odds of remembering for Control bees relative to Fipro bees” value in assay [4] (24 h retention) is on record as 8.7 times. Further, in assay [4] (24 h retention), the “proportion difference Control-Fipro for a PER response (Adjusted Wald test)” value turned out to be 0.48.
Take `O=c1c(O)c(-c2ccc(O)cc2)oc2cc(O)cc(O)c12` [Kaemp, Kaempferol]: the “latency of response relative to Control bees” value in assay [2] was “not significantly different from Control”. Moreover, the “learning score relative to Control bees” value in assay [2] (honey bees) was “not significantly different from Control bees”. In addition, the “sensitivity (sucrose responsiveness, total PER score) relative to Control bees” value in assay [1] is on record as “not significantly affected”.
As for `O=C(O)/C=C/c1ccc(O)cc1` [p-CouA, p-coumaric acid], the “latency of response relative to Control bees” value in assay [2] was “not significantly different from Control”. Further, the “learning score relative to Control bees” value in assay [2] (honey bees) is “not significantly different from Control bees”.
